Assay results taken from article PMC6279743, “A small molecule ApoE4-targeted therapeutic candidate that normalizes sirtuin 1 levels and improves cognition in an Alzheimer’s disease mouse model” (Scientific Reports, 2018).
Where two headings read alike, the source gives them in different places.

What was measured:
[1] = system: E4FAD mice; assay: Toxicity observation and body weights in 56-day study; type: in vivo
Text: (§1) E4FAD mice were 10–12 mo and NTg mice 7–9 mo at the start of the study.

[2] = system: SirT1 levels in N2a-E4 cells; assay: SirT1 AlphaLISA in N2a-E4 cells (HTS, secondary and dose-response testing); type: cell-based, murine; settings: for EC50: Mus musculus
Experimental: For HTS we tested a portion of the UCLA compound library (10 plates) including the NIH Clinical Collection library (3 plates). Complete medium (25 µL) was added to each well of 384-well plates, then library compounds were added (250 nL) followed by a suspension of 4 × 10^5 cells/mL murine neuroblastoma N2a cells (25 μL) stably transfected with ApoE4 (N2a-E4). After incubation of the N2a-E4 cells with compounds for 24 hrs at 37 °C and 5% CO2, all but ~6 μL of medium were removed and AlphaLISA Lysis Buffer complemented with HALT protease/phosphatase inhibitor (20 μL, 1X final) was added to each well. To maximize lysis, the plates were frozen at −80 °C. For the AlphaLISA, lysates were thawed and vortexed for 1 min at 3000 rpm.
The AlphaLISA comprises streptavidin donor beads, biotinylated anti-SirT1 N-terminal antibody (19A7AB4), and acceptor beads conjugated to the anti-SirT1 C-terminal antibody (1F3); when the target protein is bound by both antibodies, the beads are in close enough proximity for a transfer of ^1O2 and emission of a detectable signal (Supplementary Fig. S3). For the AlphaLISA, a 384-proxy plate was preloaded with AlphaLISA buffer (2 µL, 1X) with HALT (1X), then cell lysate (2 μL) was transferred to the proxy plate followed by the antibody-mix (2 μL). After incubation at room temperature for 1 hr, the donor bead mixture was added (2 µL) and incubated for an additional 30 min. The plates were then read in an Envision plate reader. All points are one replicate. The standard curve is generated by serial dilution of recombinant SirT1 to assess the linear range of the assay; study samples undergo serial dilution as well. We use A03 as a positive control in the HTS assay. The Z-value, while not ideal, was <1 for the assay (Supplementary Fig. S3).
(§2) Compound in medium (50 µL, 2X) was loaded into a 96-well plate, then 4 × 10^4 cells were added to each well; 24 hrs later the medium was removed and cells lysed. Lysate protein concentration was determined using the Bradford assay according to the manufacturer’s instructions. SirT1 was determined in lysates using the SirT1 AlphaLISA as described above.

[3] = system: N2a-E4 cells; assay: Lysate protein concentration (Bradford assay); type: cell-based, murine; settings: A03 at 5 or 50 μM
Experimental: as §2

[4] = system: E4FAD mice; assay: Novel Object Recognition (NOR) in 56-day study; type: in vivo; settings: total time with both objects, vs E4FAD Veh
Experimental: as §1
All mice underwent NOR testing the last week of dosing. Mice were acclimated to a 30 × 40 cm arena for 15 minutes 24 hrs before acquisition. Individual mice underwent acquisition by exposure to two identical objects for 10 min. and then were returned to the home cage overnight. For the probe, individual mice were returned to the arena wherein one of the objects had been changed. Mice were allowed to explore the objects for 10 minutes. Both the acquisition and probe were recorded on tripod-mounted video cameras. The number of discreet interactions with each object (nose within 1 cm of the object) and time spent with each object were scored by personnel blind to the treatment and genotype of the mice; scores were spot-checked by a second scorer. The discrimination index (DI) was calculated by subtracting time spent (or number of interactions) with the familiar object (TF) from time spent (or number of interactions) with the novel object (TN), and then dividing that value by the sum of those two values [DI = (TN − TF)/(TN + TF)][73].

[5] = system: sAPPα levels in A172-E4 cells; assay: Confirmation assay in A172-E4 cells, sAPPα AlphaLISA; type: cell-based, human; settings: 50 μM A03 vs DMSO, cell culture medium
Experimental: Jesus Campagna, Patricia Spilman, Barbara Jagodzinska, Dongsheng Bai, Asa Hatami, Chunni Zhu, Tina Bilousova, Michael Jun, Chris Jean Elias, Johnny Pham, Gregory Cole, Mary Jo LaDu, Michael E. Jung, Dale E. Bredesen, and […]
Confirmation assay in A172-E4 cells. Befo re transfection, A172 human glioblastoma cells were cultured in Dulbecco’s Modified Eagle Medium (DMEM) supplemented with 10% fetal bovine serum and 1% penicillin/streptomycin in a 37 °C incubator in an atmosphere of 5% CO2 in air. The day of transfection, the media was replaced with Opti-MEM reduced serum medium. Transient transfection with human ApoE4 and ApoE3 constructs in pcDNA3 mammalian expression vectors or empty vector (control) was performed in 96-well plates using a 1:1 mixture of two transfection reagents - Lipofectamine 2000 and siPORT amine - in Opti-MEM as previously described13. After 4 hr incubation with transfection reagents, medium was exchanged for fresh […]
Cells were incubated with the compound for 60 hrs, then cell culture medium (for sAPPα) and cells (lysates for SirT1) were harvested and levels of sAPPα and SirT1

[6] = Brain compound levels 2 hours after the last dose in efficacy studies; type: in vivo, mice
Experimental: Mice were euthanized and blood/tissues collected 2 hrs after dosing on day 28 by the method described above for PK. Frontal and parietal cortices (FrCx and PtCx, respectively), as well as the remaining brain tissue, from individual mice were dissected, snap frozen on dry ice, and stored at −80 °C. Plasma samples and the brain tissue minus the FrCx and PtCx (the ‘rest’) from all compound-treated mice were sent to IAS for compound level analysis as described above.
Mice were euthanized and blood/tissues collected 2 hrs after dosing on Day 25 by the method described above for PK. FrCx, PtCx, and hippocampi (Hip) were collected from all mice for SirT1 and sAPPα level determination by AlphaLISA. Protein concentration was determined using a Bradford protein assay. Brain and plasma levels of A03 were determined at IAS.
Mice were euthanized and blood/tissues collected 2 hrs after dosing on Day 56 by the method described above for PK. Hip and FrCx were collected for analysis of SirT1, sAPPα, and Aβ1-42 levels by AlphaLISA. For Aβ1-42 the Perkin Elmer kit AL276C was used. Protein concentrations were determined using the Bradford protein assay. The sAPPα and sAPPβ AlphaLISAs were similar to the SirT1 AlphaLISA (see Supplementary Fig. S3) but the former uses anti-sAPPα antibody AF1168 and 2B3-biotinylated antibodies and the latter an anti-sAPPβ antibody (IBL Cat. #18957) and an anti-N-terminal APP antibody (R&D Systems AF1168) instead of anti-SirT1 antibodies. Brain tissue and plasma were sent to IAS for A03 level analysis.

[7] = system: SirT2 levels in N2a-E4 cells; assay: SirT2 sandwich ELISA in N2a-E4 cells; type: cell-based, murine; settings: A03 at 5 or 50 μM vs DMSO

CC(N)C(=O)OC(C)(C)Cc1ccc(Cl)cc1 (centres unmarked) [A03, alaproclate]
Body weights ([1]; 56-day oral study): stayed the same | Signs of toxicity by cage-side observation ([1]; E4FAD mice, oral 56-day treatment): no signs of toxicity | EC50 ([2]; read-out: EC50 for enhancement of SirT1, N2a-E4 cells, dose-response curve, n = 3 at each concentration): 2300 nM | EC50 ([2]; N2a-E4 cells, dose-response curve, n = 3 at each concentration, read-out: EC50 for enhancement of SirT1): 2000 nM | Dose-response increase in SirT1 in secondary testing ([2]; N2a-E4 cells, 1, 5 and 10 μM): showed a dose-response | SirT1 increase, racemate vs enantiomers ([2]; N2a-E4 cells, 5 and 50 μM, n = 3 wells): increase SirT1 in N2a-E4 with high significance | SirT1 level in HTS ([2]; N2a-E4 cells, 24 hrs, NIH Clinical Collection screen, A03 5 μM as positive control): significantly increased SirT1 | SirT1 (normalized to protein) ([2]; N2a-E4 cells, A03 at 5 or 50 μM vs DMSO): dose-response increase | SirT1 increase vs DMSO control at 1 μM ([2]; secondary assay, N2a-E4 cells, 1 μM, n = 6 wells): modest but significant increases | SirT1 increase vs DMSO control at 5 and 10 μM ([2]; secondary assay, N2a-E4 cells, 5 and 10 μM, n = 6 wells): increased SirT1 | Protein concentration in cell lysates (viability surrogate) [3]: did not increase protein concentration | Exploration time in NOR [4]: similar | sAPPα levels in A172-E4 cells [5]: significant increase | Brain level 2 hours after the last dose ([6]; 25-day study, oral 40 mg/kg/day, n = 12): above 2000 n/g | concentration at 2 h ([6]; E4FAD, mouse, brain, 56-day study, oral 40 mg/kg/day, n = 16, read-out: Brain level 2 hours after the last dose): ~700 ng/g | Brain levels 2 hours after the last dose, E1 vs A03 ([6]; pilot study, SQ 10 mg/kg/day, 28 days, n = 8): slightly higher | SirT2 (normalized to protein) [7]: not significantly altered
